Measurements from PubChem BioAssay AID330 (DTP/NCI, 2004).
Where “and” joins values, the source holds several entries; their conditions need not be identical. Identical values can stand only once. Toxic doses and inconclusive results are not listed.

System: P388 leukemia ip, CD2F1 mice, survival T/C
Test: NCI In Vivo Anticancer Drug Screen. Data for tumor model P388 Leukemia (intraperitoneal) in CD2F1 (CDF1) mice
Details: endpoint: median survival time, higher = longer survival
Method in brief: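 Mice carrying the transplanted tumor received test compound or vehicle. Survival was recorded in each group, and the value is the treated-group measurement divided by that of the vehicle-treated control group.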

[1] = dose: 50.0 mg/kg/injection, schedule: Q01DX009 (ip), vehicle: saline with Tween-80
[2] = dose: 100.0 mg/kg/injection, schedule: Q01DX009 (ip), vehicle: saline with Tween-80
[3] = dose: 200.0 mg/kg/injection, schedule: Q01DX009 (ip), vehicle: saline with Tween-80
[4] = dose: 50.0 mg/kg/injection, schedule: Q01DX005 (ip), vehicle: saline with Tween-80
[5] = dose: 100.0 mg/kg/injection, schedule: Q01DX005 (ip), vehicle: saline with Tween-80
[6] = dose: 200.0 mg/kg/injection, schedule: Q01DX005 (ip), vehicle: saline with Tween-80
[7] = dose: 60.0 mg/kg/injection, schedule: Q01DX005 (ip), vehicle: saline with Tween-80

Question: With `CC(=O)OCN1C(=O)N(COC(C)=O)C(c2ccccc2)(c2ccccc2)C1=O` as the molecule, how does the T/C (dose: 60.0 mg/kg/injection, schedule: Q01DX005 (ip), vehicle: Klucel (hydroxypropylcellulose) (HPC)) read?
Answer: 104 % of control

Question: And the T/C (dose: 120.0 mg/kg/injection, schedule: Q01DX005 (ip), vehicle: Klucel (hydroxypropylcellulose) (HPC))?
Answer: 105 % of control

Question: And the T/C (dose: 240.0 mg/kg/injection, schedule: Q01DX005 (ip), vehicle: Klucel (hydroxypropylcellulose) (HPC))?
Answer: 103 % of control

Question: Which T/C (dose: 50.0 mg/kg/injection, schedule: Q04DX003 (ip), vehicle: suspension in saline) does the source give for `O=S(=O)(O)c1cnc2nccn2c1` here?
Answer: 99 % of control

Question: And the T/C (dose: 100.0 mg/kg/injection, schedule: Q04DX003 (ip), vehicle: suspension in saline)?
Answer: 110 % of control

Question: And the T/C (dose: 200.0 mg/kg/injection, schedule: Q04DX003 (ip), vehicle: suspension in saline)?
Answer: 105 % of control

Question: Which T/C [1] does the source give for `CCCCCCCCCCCC(=O)OCCN(CCOC(=O)CCCCCCCCCCC)C(=O)c1ccccc1` here?
Answer: 95 % of control

Question: And the T/C [2]?
Answer: 100 % of control

Question: And the T/C [3]?
Answer: 93 % of control

Question: Which results are given for `O=C(O)C(CS)NCCNC(CS)C(=O)O` (stereo unspecified)?
Answer: T/C (dose: 12.5 mg/kg/injection, schedule: Q01DX001 (ip), vehicle: Klucel (hydroxypropylcellulose) (HPC)): 97 % of control; T/C (dose: 25.0 mg/kg/injection, schedule: Q01DX001 (ip), vehicle: Klucel (hydroxypropylcellulose) (HPC)): 97 % of control

Question: With `CC(=O)[C@H]1[C@H](O)C[C@H]2[C@@H]3CCC4=CC(=O)CC[C@]4(C)[C@@]3(F)[C@@H](O)C[C@@]21C` as the molecule, how does the T/C (dose: 100.0 mg/kg/injection, schedule: Q01DX009 (ip), vehicle: saline) read?
Answer: 120 % of control

Question: And the T/C (dose: 200.0 mg/kg/injection, schedule: Q01DX009 (ip), vehicle: saline)?
Answer: 95 % of control

Question: With `CC1(C)OC2OC3C(CNCCO)OC(c4ccccc4)OC3C2O1` (stereo unspecified) as the molecule, how does the T/C (dose: 50.0 mg/kg/injection, schedule: Q01DX005 (ip), vehicle: Klucel (hydroxypropylcellulose) (HPC)) read?
Answer: 107 % of control

Question: And the T/C (dose: 100.0 mg/kg/injection, schedule: Q01DX005 (ip), vehicle: Klucel (hydroxypropylcellulose) (HPC))?
Answer: 108 % of control

Question: What about the T/C (dose: 200.0 mg/kg/injection, schedule: Q01DX005 (ip), vehicle: Klucel (hydroxypropylcellulose) (HPC)) of the same molecule?
Answer: 101 % of control

Question: How did the T/C (dose: 25.0 mg/kg/injection, schedule: Q01DX009 (ip), vehicle: saline with Tween-80) turn out when `Oc1cc(CN2CCCC2)c(O)cc1CN1CCCC1` was run?
Answer: 103 % of control and 111 % of control

Question: What about the T/C [1] of the same molecule?
Answer: 103 % of control and 111 % of control

Question: What about the T/C [2] of the same molecule?
Answer: 110 % of control and 111 % of control

Question: `Nc1ccccc1Sc1ccc2c3c(cccc13)C(=O)N(c1ccccc1)C2=O` was tested. Which T/C [4] did it give?
Answer: 91 % of control

Question: And the T/C [5]?
Answer: 90 % of control

Question: And the T/C [6]?
Answer: 100 % of control

Question: Which T/C [4] does the source give for `OCCN(CCO)C1c2ccccc2-c2ccccc21` here?
Answer: 98 % of control

Question: What about the T/C [5] of the same molecule?
Answer: 89 % of control

Question: What about the T/C [6] of the same molecule?
Answer: 90 % of control

Question: What does the source list for `[Tl][S][Tl]`?
Answer: T/C (dose: 6.25 mg/kg/injection, schedule: Q01DX009 (ip), vehicle: Klucel (hydroxypropylcellulose) (HPC)): 102 % of control; T/C (dose: 12.5 mg/kg/injection, schedule: Q01DX009 (ip), vehicle: Klucel (hydroxypropylcellulose) (HPC)): 100 % of control

Question: Which T/C (dose: 100.0 mg/kg/injection, schedule: Q04DX003 (ip), vehicle: saline) does the source give for `Cc1cncn2c(C)nnc12` here?
Answer: 100 % of control

Question: What about the T/C (dose: 200.0 mg/kg/injection, schedule: Q04DX003 (ip), vehicle: saline) of the same molecule?
Answer: 104 % of control

Question: `COc1ccc(-c2cn3c([nH]c(=O)c4ccccc43)c2C#N)cc1` was tested. Which T/C (dose: 15.0 mg/kg/injection, schedule: Q01DX005 (ip), vehicle: saline with Tween-80) did it give?
Answer: 86 % of control

Question: What about the T/C (dose: 30.0 mg/kg/injection, schedule: Q01DX005 (ip), vehicle: saline with Tween-80) of the same molecule?
Answer: 88 % of control

Question: And the T/C [7]?
Answer: 86 % of control

Question: Which results are given for `O=c1nc2n(c3ncccc13)CC=NN2`?
Answer: T/C [7]: 99 % of control; T/C (dose: 120.0 mg/kg/injection, schedule: Q01DX005 (ip), vehicle: saline with Tween-80): 100 % of control

Question: For `CCCCOC(=O)c1ccc2nc(NC(=O)OC)[nH]c2c1`, which T/C (dose: 100.0 mg/kg/injection, schedule: Q04DX002 (ip), vehicle: saline with Tween-80) is on record?
Answer: 100 % of control

Question: What about the T/C (dose: 200.0 mg/kg/injection, schedule: Q04DX002 (ip), vehicle: saline with Tween-80) of the same molecule?
Answer: 90 % of control

Question: And the T/C (dose: 400.0 mg/kg/injection, schedule: Q04DX002 (ip), vehicle: saline with Tween-80)?
Answer: 91 % of control

Question: `CCCCCCCC(=O)N/N=C(\CO)[C@]1(O)Cc2c(O)c3c(c(O)c2[C@@H](OC2CC(N)C(O)C(C)O2)C1)C(=O)c1c(OC)cccc1C3=O` (stereo partly specified) was tested. Which T/C (dose: 1.25 mg/kg/injection, schedule: Q04DX003 (ip), vehicle: water) did it give?
Answer: 109 % of control

Question: What about the T/C (dose: 2.5 mg/kg/injection, schedule: Q04DX003 (ip), vehicle: water) of the same molecule?
Answer: 109 % of control

Question: And the T/C (dose: 5.0 mg/kg/injection, schedule: Q04DX003 (ip), vehicle: water)?
Answer: 107 % of control

Question: And the T/C (dose: 10.0 mg/kg/injection, schedule: Q04DX003 (ip), vehicle: water)?
Answer: 119 % of control and 121 % of control

Question: And the T/C (dose: 20.0 mg/kg/injection, schedule: Q04DX003 (ip), vehicle: water)?
Answer: 123 % of control

Question: What about the T/C (dose: 80.0 mg/kg/injection, schedule: Q04DX003 (ip), vehicle: water) of the same molecule?
Answer: 179 % of control

Question: How did the T/C (dose: 50.0 mg/kg/injection, schedule: Q01DX009 (ip), vehicle: Klucel (hydroxypropylcellulose) (HPC)) turn out when `Clc1ccc(OCSCOc2ccc(Cl)cc2Cl)c(Cl)c1` was run?
Answer: 106 % of control

Question: What about the T/C (dose: 100.0 mg/kg/injection, schedule: Q01DX009 (ip), vehicle: Klucel (hydroxypropylcellulose) (HPC)) of the same molecule?
Answer: 99 % of control

Question: And the T/C (dose: 200.0 mg/kg/injection, schedule: Q01DX009 (ip), vehicle: Klucel (hydroxypropylcellulose) (HPC))?
Answer: 101 % of control

Question: With `CCCCCCCCCCCCCCCCN1C(=O)/C(=C\c2ccc(O)cc2)SC1=Nc1ccccc1` as the molecule, how does the T/C (dose: 12.5 mg/kg/injection, schedule: Q01DX009 (ip), vehicle: saline) read?
Answer: 90 % of control

Question: What about the T/C (dose: 25.0 mg/kg/injection, schedule: Q01DX009 (ip), vehicle: saline) of the same molecule?
Answer: 88 % of control

Question: And the T/C [1]?
Answer: 95 % of control

Question: And the T/C (dose: 50.0 mg/kg/injection, schedule: Q01DX009 (ip), vehicle: saline)?
Answer: 91 % of control

Question: And the T/C [3]?
Answer: 92 % of control
